Patent US6011019A, “Vasoactive effects and free radical generation by β-amyloid peptides” (University of South Florida, priority 1996, dated 2000)

Experiments:
aortic rings = experiment: β-amyloid augmentation of phenylephrine (PE) induced contraction of aortic rings; design: species or system rat; settings: for PE induced contraction, +β-Amyloid P1 (±SEM): after 10^-6 M β-amyloid, maximum contraction without β-amyloid = 100%; for PE induced contraction, +β-Amyloid P2 (±SEM): repeated contraction after washing, no further β-amyloid
Experimental: (§1) The blood vessel preparations were mounted on stainless steel hooks attached to a force-displacement transducer and equilibrated under the optimum tension of 1.3 g for a period of sixty minutes in a tissue bath (10 ml) containing oxygenated (5% CO2 in O2) Kreb's buffer at 37° C. The buffer was changed every fifteen minutes. After equilibration for sixty minutes the viability of the blood vessel with intact endothelium was established by constricting the blood vessel using phenylephrine ([…]). This dose of phenylephrine elicited 80% of the maximum response. […] The vessel preparations were washed for fifteen minutes before various manipulations as described below.
The procedure was then repeated following incubation of the tissue with 10^-6 M β-amyloid for fifteen minutes (P1). The tissue was then rinsed and contractions repeated twice following fifteen minute incubation (P2 & P3) without further addition of β-amyloid. Arrows are shown for points of addition for P3.
Following a fifteen minute incubation, the preparations were contracted with 10^-7 M phenylephrine (PE) as described earlier. Control contractions with PE alone were carried out in presence of the various test compounds. Values represent the mean±SEM of four or more experiments. The heat-inactivated SOD was prepared by placing it in boiling water for thirty minutes followed by cooling prior to use. The hydrogen peroxide-inactivated SOD was prepared by exposing SOD to 10 mM H2 O2 for thirty minutes at pH 8.5 and subsequent separation using Microcon filtration system. The amyloid induced PE contraction was blocked by active SOD. Neither albumin or inactivated SOD had any effect on the amyloid activity.
The effect of preincubation of blood vessel with 10^-6 M β-amyloidon contraction induced by phenylephrine (2, 4, 8, & 16×10^-8 M is shown in Table 1). The maximum contraction in the absence of β-amyloid is taken as 100% and the values obtained following exposure to β-amyloid are expressed as percent of control value. After washing out phenylephrine and acetylcholine of the control contraction, β-amyloid augmented the phenylephrine induced contractions (P1). This effect was blocked by SOD. Washing out the phenylephrine and acetylcholine of the post peptide contraction and repeating the contractions caused further enhancement (P2). Values represent the mean±SEM of nine or more experiments.
The tissue was then incubated for fifteen minutes with β-amyloid (5×10^-7 M) with or without the drug, followed by contractions with PE. The concentrations compounds used were: L-NMMA, an inhibitor of NO synthase (10^-4 M); indomethacin, an inhibitor of the cyclooxygenase pathway (10^-5 M); SQ 29548, a thromboxane A2 receptor antagonist (10^-5 M); and catalase (1000 units/ml). Values are represented as percentage of the maximal contraction obtained with β-amyloid and PE alone and standardized to remove the intrinsic effects (if any) of each drug on PE contraction alone. The results represent the mean±SEM of five or more experiments.

[1] = system: bovine mid cerebral arteries; experiment: Bovine mid cerebral artery contraction (U46619) and bradykinin vasodilation; settings: 1 μM β-amyloid for 15 minutes
Experimental: Freshly dissected bovine mid cerebral arteries were cut into 3 mm rings and studied in tissue chamber as described earlier. Contraction of the blood vessel to the vasoconstrictor U46619 was studied before and after treatment with 1 μM β-amyloid for 15 minutes. […] (See FIG. 24).

blood vessel (rat aorta) = experiment: Acetylcholine induced relaxation of preconstricted rat aorta after β-amyloid; settings: for acetylcholine induced relaxation after β-amyloid pretreatment: 10^-6 M β-amyloid fifteen minutes, preconstricted with 10^-7 M phenylephrine
Experimental: as §1
(1=10^-9 M, 2=10^-8 M, 3=5×10^-8 M, 4=10^-7 M, 5=5×10^-7 M, 6=10^-6 M, 7=10^-5 M, 8=5×10^-5 M, the curve denoted by (C) is the control curve and +Aβ indicates the curve for β-amyloid treated aorta.)
FIG. 11 illustrates the relaxation by acetylcholine under control conditions and following fifteen minute incubation with 10^-6 M β-amyloid protein. The acetylcholine relaxation curve is shifted to the right but maintains its sigmoidal form indicating attenuation of acetylcholine induced relaxation. Values represent the mean±SEM of 5 or more experiments. […] At higher doses of acetylcholine greater percentage changes in relaxation occur preserving the sigmoidal response.

[2] = system: porcine coronary arteries; experiment: Porcine coronary artery vascular tone and bradykinin relaxation
From the text: Freshly isolated porcine coronary arteries were studied by the methods described above for rat aorta.
The effect of pre-treatment with a single dose of amyloid protein on relaxation induced by increasing concentrations of the vasodilator bradykinin is shown in FIG. 23. […] was preconstricted with a single dose of the vasoconstrictor U46619.

rat coronary arteries = experiment: Rat coronary artery constriction and relaxation (U46619, acetylcholine); settings: single dose 10^-6 M; preconstricted with 10^-7 M U46619
Experimental: The effects of β-amyloid peptide were examined on samples of rat coronary arteries prepared as described above. Referring specifically to FIG. 1, rat coronary arteries were treated with β-amyloid peptide (Aβ40) causing constriction of the coronary arteries.
FIG. 3 illustrates the effect of various amyloid fragments on the constriction of rat coronary arteries. Following control constriction with 10^-7 M U46619, the tissue samples were rinsed, equilibrated with buffer, and treated with 10^-6 M Aβ peptides for fifteen minutes. Following treatment with the Aβ peptides, the blood vessels were rinsed and again exposed to U46619. The values are expressed as percent of control constriction produced by U46619 alone.
The effect of pretreatment of coronary arteries with a single dose (10^-6 M) of A40 on acetylcholine induced relaxation is shown in FIG. 20. The blood vessel was preconstricted with 10^-7 M U46619 and relaxed with increasing doses of acetylcholine (10^-9 M to 10^-5 M).

[3] = system: endothelial cells in aortic rings; experiment: Electron microscopy of endothelial cell layer in aortic rings; design: species or system rat
Experimental: As shown in FIGS. 14A-F, […], or in presence of β-amyloid (10^-6 M), or SOD (150 units/ml) and β-amyloid.The tissue samples were kept in glutaraldehyde solution at 4° C. until processed and then rinsed with cacodylate buffer. The tissues were postfixed with 1% buffered osmium tetroxide, dehydrated with graded ethanol solutions, and embedded in a mixture of eponaraldite. Ultrathin sections were stained with uranyl acetate and lead citrate and viewed on model 7000 Hitachi transmission electron microscope. The inset bar indicates one micron. The experiment was repeated three or more times with blood vessels from different animals.

Question: Which results are given for β-amyloid?
Answer: PE induced contraction, +β-Amyloid P1 (±SEM) (aortic rings; PE 2×10^-8 M): 13.3(5.9) percent of control value; PE induced contraction, +β-Amyloid P2 (±SEM) (aortic rings; PE 2×10^-8 M): 20(5.0) percent of control value; PE induced contraction, +β-Amyloid P1 (±SEM) (aortic rings; PE 4×10^-8 M): 75(6.0) percent of control value; PE induced contraction, +β-Amyloid P2 (±SEM) (aortic rings; PE 4×10^-8 M): 99(15.0) percent of control value; PE induced contraction, +β-Amyloid P1 (±SEM) (aortic rings; PE 8×10^-8 M): 105(15.0) percent of control value; PE induced contraction, +β-Amyloid P2 (±SEM) (aortic rings; PE 8×10^-8 M): 133(20.0) percent of control value; PE induced contraction, +β-Amyloid P1 (±SEM) (aortic rings; PE 16×10^-8 M): 128(11.7) percent of control value; PE induced contraction, +β-Amyloid P2 (±SEM) (aortic rings; PE 16×10^-8 M): 141(17.6) percent of control value; PE contraction after washing the β-amyloid treated tissue (aortic rings; subsequent contraction with PE): showed further increase; contraction induced by U46619 after β-amyloid [1]: significantly increased; vasodilatory effect of bradykinin after β-amyloid [1]: markedly reduced; acetylcholine induced relaxation after β-amyloid pretreatment (blood vessel (rat aorta)): significantly reduced relaxation; acetylcholine induced relaxation after β-amyloid pretreatment (blood vessel (rat aorta); listed as β-amyloid protein): significantly lowered; restoration of acetylcholine induced relaxation by washing after β-amyloid (blood vessel (rat aorta); tissue washed following β-amyloid exposure): did not restore the acetylcholine-induced relaxation to control levels; contraction of porcine coronary artery ([2]; increasing concentrations of amyloid peptide): dose dependent contraction; vasodilation caused by bradykinin after amyloid peptide ([2]; single dose of amyloid, increasing bradykinin): reduced the vasodilation caused by the bradykinin; vasoconstriction by U46619 after amyloid peptide ([2]; single dose of amyloid, preconstricted with U46619): significant increase in vasoconstriction; acetylcholine induced vasodilation after pretreatment (rat coronary arteries): significantly reduced the vasodilation induced by acetylcholine; β-amyloid concentration required to induce the morphological changes ([3]; incubation periods of fifteen minutes): > 5×10^-7 M; endothelial cell morphology after incubation ([3]; β-amyloid 10^-6 M, 37° C., thirty minutes): induced significant damage to the endothelial cells
